Where a SMILES comes first, the peptide text is derived from it. Bridges are numbered along the chain shown (N, C = ends). [ ]: non-standard residue; d: D form. Hyp = O=C(O)[C@@H]1C[C@@H](O)CN1; Pen = CC(C)(S)[C@H](N)C(=O)O; ΔPro = O=C(O)[C@@H]1C=CCN1; dDab = NCC[C@@H](N)C(=O)O; Dab = NCC[C@H](N)C(=O)O
Legend:
Format in all cases: cell-based
[1] = test system: Escherichia coli MCR-1 Af 45; conditions: MCR-1 Af 45
Protocol: (§1) Lyophilized peptides were weighed on a Microbalance (Mettler MT5) and dissolved in sterile water to a final concentration of 1 mg/mL. Stock solutions were kept at +4° C., light protected.
(§2) The selective antimicrobial activities of the peptides were determined in 96-well plates (Greiner, polystyrene) by the standard CLSI broth microdilution method (Clinical and Laboratory Standards Institute. Methods for Dilution Antimicrobial Susceptibility Tests for Bacteria That Grow Aerobically; Approved Standard-Ninth Edition. CLSI document M07-A9 (ISBN 1-56238-783-9 [Print]; ISBN 1-56238-784-7 [Electronic]). Clinical and Laboratory Standards Institute, 950 West Valley Road, Suite 2500, Wayne, Pennsylvania 19087, USA, 2012) with slight modifications.
(§3) Colonies of the microorganisms were diluted in saline (0.85%, NaCl) and adjusted using a McFarland reader (bioMérieux SA, Marcy-l'Etoile, France) to 0.5 McFarland standard. Subsequently, the bacterial suspension was diluted in Mueller-Hinton II (MHII, cation adjusted) broth to give approximately 5×10^5 colony forming units (CFU/mL).
(§4) Inocula of the microorganisms were diluted into Mueller-Hinton II (MH, cation adjusted) broth and compared with a 0.5 McFarland standard to give appr. 10^6 colony forming units (CFU)/mL. Aliquots (90 μl) of inoculate were added to 10 μl of water+P-80 (Polysorbate 80, 0.002% final concentration) containing the peptide in serial two-fold dilutions at 10 fold final concentration. The following microorganisms were used to determine antibiotic selectivity of the peptides: Escherichia coli ATCC 25922, Escherichia coli MCR-1 Af 45 and Klebsiella pneumoniae SSI3010. Antimicrobial activities of the peptides were expressed as the minimal inhibitory concentration (MIC) in μg/mL at which no visible growth was observed after 18-20 hours of incubation at 35° C.

[2] = test system: Escherichia coli ATCC 25922; conditions: ATCC 25922
Protocol: as §1, §2, §3, §4

[3] = test system: Klebsiella pneumoniae SSI3010; conditions: SSI3010
Protocol: as §1, §2, §3, §4

[4] = test system: human red blood cells (hRBC); conditions: red cells of human, 1 h, 200 μg/mL
Protocol: Lyophilized peptides were weighed on a Microbalance (Mettler MT5) and dissolved in sterile water to a final concentration of 1 mg/mL. Stock solutions were kept at +4° C., light protected. The peptides were tested for their hemolytic activity against human red blood cells (hRBC). Fresh hRBC were washed three times with phosphate buffered saline (PBS) and centrifuged for 5 min at 3000×g. Compounds (200 μg/mL) were incubated with 20% hRBC (v/v) for 1 h at 37° C. and shaking at 300 rpm. A value of 0% and 100% cell lyses, respectively, was determined by incubation of hRBC in the presence of PBS and 2.5% Triton X-100 in H2O, respectively. The samples were centrifuged, the supernatants were 8-fold diluted in PBS buffer and the optical densities (OD) were measured at 540 nm. The 100% lyses value (OD540H2O) gave an OD540 of approximately 0.5-1.0. Percent hemolysis was calculated as follows: (OD540peptide/OD540H2O)×100%.

| SMILES | Escherichia coli MCR-1 Af45 MIC [1] | Escherichia coli ATCC 25922 MIC [2] | Klebsiella pneumoniae SSI3010 MIC [3] | Hemolysis at 0.2 g/L [4] |
| --- | --- | --- | --- | --- |
| CC[C@H](C)[C@H](NC(=O)[C@@H]1C=CCN1C(=O)[C@@H](N)C(C)C)C(=O)N[C@@H]1C(=O)N[C@@H](Cc2ccc(O)cc2)C(=O)N[C@@H]([C@@H](C)O)C(=O)N[C@@H](CC(N)=O)C(=O)N[C@@H](CCCNC(=N)N)C(=O)N[C@@H](CCN)C(=O)N[C@@H]([C@@H](C)O)C(=O)N[C@H](CCN)C(=O)N[C@@H](CCCCN)C(=O)N[C@@H](CCN)C(=O)N[C@@H](CCN)C(=O)N[C@H](C(=O)N[C@@H](Cc2ccc(O)cc2)C(=O)O)CSSC1(C)C [Example 10, Val-Pro(3,4dehydro)-Ile-Pen-Tyr-Thr-Asn-Arg-Dab-Thr-^DDab-Lys-Dab-Dab-Cys-Tyr] (H-V[ΔPro]I[Pen]YTNR[Dab]T[dDab]K[Dab][Dab]CY-OH; disulfide 4-15) | 0.0625 µg/mL | 0.0625 µg/mL | 0.125 µg/mL | <1% |
| CC[C@H](C)[C@H](NC(=O)[C@@H]1C[C@@H](O)CN1C(=O)[C@@H](N)C(C)C)C(=O)N[C@H]1CSSC[C@@H](C(=O)N[C@@H](Cc2ccc(O)cc2)C(=O)O)NC(=O)[C@H](CCN)NC(=O)[C@H](CCN)NC(=O)[C@H](CCCCN)NC(=O)[C@@H](CCN)NC(=O)[C@H]([C@@H](C)O)NC(=O)[C@H](CCN)NC(=O)[C@H](CCCNC(=N)N)NC(=O)[C@H](CC(N)=O)NC(=O)[C@H](CO)NC(=O)[C@H](Cc2ccc(O)cc2)NC1=O [Example 11, Val-Hyp-Ile-Cys-Tyr-Ser-Asn-Arg-Dab-Thr-^DDab-Lys-Dab-Dab-Cys-Tyr] (H-V[Hyp]ICYSNR[Dab]T[dDab]K[Dab][Dab]CY-OH; disulfide 4-15) | 0.25 µg/mL | 0.5 µg/mL | 0.5 µg/mL | <1% |
| CC[C@H](C)[C@H](NC(=O)[C@@H]1C[C@@H](O)CN1C(=O)[C@@H](N)C(C)C)C(=O)N[C@H]1CSSC(C)(C)[C@@H](C(=O)N[C@@H](Cc2ccc(O)cc2)C(=O)O)NC(=O)[C@H](CCN)NC(=O)[C@H](CCN)NC(=O)[C@H](CCCCN)NC(=O)[C@@H](CCN)NC(=O)[C@H]([C@@H](C)O)NC(=O)[C@H](CCN)NC(=O)[C@H](CCCNC(=N)N)NC(=O)[C@H](CC(N)=O)NC(=O)[C@H](CO)NC(=O)[C@H](Cc2ccc(O)cc2)NC1=O [Example 12, Val-Hyp-Ile-Cys-Tyr-Ser-Asn-Arg-Dab-Thr-^DDab-Lys-Dab-Dab-Pen-Tyr] (H-V[Hyp]ICYSNR[Dab]T[dDab]K[Dab][Dab][Pen]Y-OH; disulfide 4-15) | 0.125 µg/mL | 0.25 µg/mL | 0.5 µg/mL | <1% |
| CC[C@H](C)[C@H](NC(=O)[C@@H]1C[C@@H](O)CN1C(=O)[C@@H](N)C(C)C)C(=O)N[C@@H]1C(=O)N[C@@H](C)C(=O)N[C@@H](CO)C(=O)N[C@@H](CC(N)=O)C(=O)N[C@@H](CCCNC(=N)N)C(=O)N[C@@H](CCN)C(=O)N[C@@H]([C@@H](C)O)C(=O)N[C@H](CCN)C(=O)N[C@@H](CCCCN)C(=O)N[C@@H](CCN)C(=O)N[C@@H](CCN)C(=O)N[C@H](C(=O)N[C@@H](Cc2ccc(O)cc2)C(=O)O)CSSC1(C)C [Example 13, Val-Hyp-Ile-Pen-Ala-Ser-Asn-Arg-Dab-Thr-^DDab-Lys-Dab-Dab-Cys-Tyr] (H-V[Hyp]I[Pen]ASNR[Dab]T[dDab]K[Dab][Dab]CY-OH; disulfide 4-15) | 0.125 µg/mL | 0.5 µg/mL | 0.5 µg/mL | <1% |
| CC[C@H](C)[C@H](NC(=O)[C@@H]1C[C@@H](O)CN1C(=O)[C@@H](N)C(C)C)C(=O)N[C@@H]1C(=O)N[C@@H](CO)C(=O)N[C@@H](CO)C(=O)N[C@@H](CC(N)=O)C(=O)N[C@@H](CCCNC(=N)N)C(=O)N[C@@H](CCN)C(=O)N[C@@H]([C@@H](C)O)C(=O)N[C@H](CCN)C(=O)N[C@@H](CCCCN)C(=O)N[C@@H](CCN)C(=O)N[C@@H](CCN)C(=O)N[C@H](C(=O)N[C@@H](Cc2ccc(O)cc2)C(=O)O)CSSC1(C)C [Example 14, Val-Hyp-Ile-Pen-Ser-Ser-Asn-Arg-Dab-Thr-^DDab-Lys-Dab-Dab-Cys-Tyr] (H-V[Hyp]I[Pen]SSNR[Dab]T[dDab]K[Dab][Dab]CY-OH; disulfide 4-15) | 0.25 µg/mL | 0.5 µg/mL | 0.5 µg/mL | <1% |

Second part, led by results:

| Escherichia coli MCR-1 Af45 MIC [1] | Escherichia coli ATCC 25922 MIC [2] | Klebsiella pneumoniae SSI3010 MIC [3] | SMILES | Hemolysis at 0.2 g/L [4] |
| --- | --- | --- | --- | --- |
| 0.0625 µg/mL | 0.0625 µg/mL | 0.125 µg/mL | CC[C@H](C)[C@H](NC(=O)[C@@H]1C[C@@H](O)CN1C(=O)[C@@H](N)C(C)C)C(=O)N[C@@H]1C(=O)N[C@@H](Cc2ccc(O)cc2)C(=O)N[C@@H]([C@@H](C)O)C(=O)N[C@@H](CC(N)=O)C(=O)N[C@@H](CCCNC(=N)N)C(=O)N[C@@H](CCN)C(=O)N[C@@H]([C@@H](C)O)C(=O)N[C@H](CCN)C(=O)N[C@@H](CCCCN)C(=O)N[C@@H](CCN)C(=O)N[C@@H](CCN)C(=O)N[C@H](C(=O)N[C@@H](Cc2ccc(O)cc2)C(=O)O)CSSC1(C)C [Example 15, Val-Hyp-Ile-Pen-Tyr-Thr-Asn-Arg-Dab-Thr-^DDab-Lys-Dab-Dab-Cys-Tyr] (H-V[Hyp]I[Pen]YTNR[Dab]T[dDab]K[Dab][Dab]CY-OH; disulfide 4-15) | <1% |
| 0.25 µg/mL | 0.375 µg/mL | 0.5 µg/mL | CC[C@H](C)[C@@H]1NC(=O)[C@H](Cc2ccc(O)cc2)NC(=O)[C@@H](NC(=O)[C@@H](NC(=O)[C@@H]2C[C@@H](O)CN2C(=O)[C@@H](N)C(C)C)[C@@H](C)CC)C(C)(C)SSC[C@@H](C(=O)N[C@@H](Cc2ccc(O)cc2)C(=O)O)NC(=O)[C@H](CCN)NC(=O)[C@H](CCCNC(=N)N)NC(=O)[C@H](CCCCN)NC(=O)[C@@H](CCN)NC(=O)[C@H]([C@@H](C)O)NC(=O)[C@H](CCN)NC(=O)[C@H](CCCNC(=N)N)NC(=O)[C@H](CC(N)=O)NC1=O [Example 16, Val-Hyp-Ile-Pen-Tyr-Ile-Asn-Arg-Dab-Thr-^DDab-Lys-Arg-Dab-Cys-Tyr] (H-V[Hyp]I[Pen]YINR[Dab]T[dDab]KR[Dab]CY-OH; disulfide 4-15) | <1% |
| 0.25 µg/mL | 0.5 µg/mL | 0.5 µg/mL | CC[C@H](C)[C@H](NC(=O)[C@@H]1C[C@@H](O)CN1C(=O)[C@@H](N)C(C)C)C(=O)N[C@@H]1C(=O)N[C@@H](Cc2ccc(O)cc2)C(=O)N[C@@H](CCC(=O)O)C(=O)N[C@@H](CC(N)=O)C(=O)N[C@@H](CCCNC(=N)N)C(=O)N[C@@H](CCN)C(=O)N[C@@H]([C@@H](C)O)C(=O)N[C@H](CCN)C(=O)N[C@@H](CCCCN)C(=O)N[C@@H](CCN)C(=O)N[C@@H](CCN)C(=O)N[C@H](C(=O)N[C@@H](Cc2ccc(O)cc2)C(=O)O)CSSC1(C)C [Example 17, Val-Hyp-Ile-Pen-Tyr-Glu-Asn-Arg-Dab-Thr-^DDab-Lys-Dab-Dab-Cys-Tyr] (H-V[Hyp]I[Pen]YENR[Dab]T[dDab]K[Dab][Dab]CY-OH; disulfide 4-15) | <1% |
| 0.125 µg/mL | 0.25 µg/mL | 0.25 µg/mL | CC[C@H](C)[C@H](NC(=O)[C@@H]1C[C@@H](O)CN1C(=O)[C@@H](N)C(C)C)C(=O)N[C@@H]1C(=O)N[C@@H](Cc2ccc(O)cc2)C(=O)N[C@@H](CC(N)=O)C(=O)N[C@@H](CC(N)=O)C(=O)N[C@@H](CCCNC(=N)N)C(=O)N[C@@H](CCN)C(=O)N[C@@H]([C@@H](C)O)C(=O)N[C@H](CCN)C(=O)N[C@@H](CCCCN)C(=O)N[C@@H](CCN)C(=O)N[C@@H](CCN)C(=O)N[C@H](C(=O)N[C@@H](Cc2ccc(O)cc2)C(=O)O)CSSC1(C)C [Example 18, Val-Hyp-Ile-Pen-Tyr-Asn-Asn-Arg-Dab-Thr-^DDab-Lys-Dab-Dab-Cys-Tyr] (H-V[Hyp]I[Pen]YNNR[Dab]T[dDab]K[Dab][Dab]CY-OH; disulfide 4-15) | <1% |

Source: US20240336654A1, “ANTIMICROBIAL PEPTIDOMIMETICS” (SPEXIS AG, priority 2021, published 2024)
